How the values were obtained:
[1] = ROSE2 phase 2b clinical trial - safety and tolerability (adverse events); format: in vivo, human; conditions: Safety Population
Description: (§1) The exploratory objectives of this study include the following: • To evaluate the effect of obicetrapib 10 mg+ezetimibe 10 mg combination therapy and obicetrapib 10 mg monotherapy, when used as an adjunct to high-intensity statin therapy, on non-high-density lipoprotein cholesterol (non-HDL-C), very low-density lipoprotein cholesterol (VLDL-C), HDL-C, TG, ApoE, Lp(a), and HDL-ApoE at Day 84; • To evaluate the effect of obicetrapib 10 mg+ezetimibe 10 mg combination therapy and obicetrapib 10 mg monotherapy, when used as an adjunct to high-intensity statin therapy, on the proportion of participants achieving predefined LDL-C targets at Day 84; • To assess the mean trough plasma levels of obicetrapib 10 mg+ezetimibe 10 mg combination therapy and obicetrapib 10 mg monotherapy at steady state on Days 28, 84, and 112; and • To evaluate the safety and tolerability profiles of obicetrapib 10 mg+ezetimibe 10 mg combination therapy and obicetrapib 10 mg monotherapy, when used as an adjunct to high-intensity statin therapy, assessed by clinical laboratory values and incidence of AEs.
The safety and tolerability profile of obicetrapib 10 mg, both in combination with ezetimibe 10 mg and as monotherapy, will be assessed by clinical laboratory assessments (chemistry and hematology), vital signs, physical examinations, and the incidence of AEs.
An AE can therefore be any unfavorable and/or unintended sign (including an abnormal laboratory finding), symptom, or disease temporally associated with the use of an investigational medicinal product, whether or not related to the investigational medicinal product. All AEs, including observed or volunteered problems, complaints, or symptoms, are to be recorded on the appropriate eCRF.
AEs, which include clinical laboratory assessment variables, will be monitored and documented from the time of first dose of study treatment until completion of Visit 5. Participants should be instructed to report any AE that they experience to the Investigator, whether or not they think the event is due to study drug. Beginning at the date of the first dose of study treatment, Investigators should make an assessment for AEs at each visit and record the event on the appropriate AE eCRF.
The Investigator will assess the severity (intensity) of each AE as mild, moderate, or severe, and will also categorize each AE as to its potential relationship to study drug using the categories of yes or no.
• Mild—An event that is easily tolerated and generally not interfering with normal daily activities. • Moderate—An event that is sufficiently discomforting to interfere with normal daily activities. • Severe—An event that is incapacitating with inability to work or perform normal daily activities.
An AE or adverse reaction is considered serious if, in the view of either the Investigator or Sponsor, it results in any of the following outcomes: • Death; • A life-threatening AE;
The Safety Population will include all participants who receive at least 1 dose of any study drug. Treatment classification will be based on the actual treatment received. The Safety Population will be the primary population used for the safety analyses.

Lp(a) = assay: ROSE2 phase 2b clinical trial - Lp(a); format: in vivo, human; conditions: Exploratory Population
Description: as §1
This study will be a placebo-controlled, double-blind, randomized, Phase 2 study to evaluate the efficacy, safety, and tolerability of obicetrapib 10 mg, both in combination with ezetimibe 10 mg and as monotherapy, as an adjunct to high-intensity statin therapy. This study will take place at approximately 20 sites in the United States.
Up to 2 weeks after the Screening Visit, participants will return to the site on Day 1 (Visit 2) and confirm study eligibility before being randomized and beginning treatment. Approximately 114 eligible participants (38 participants per treatment group) will be randomized in a 1:1:1 ratio to 1 of the following treatment groups: • Combination therapy: Obicetrapib 10 mg+ezetimibe 10 mg (administered as one 10 mg obicetrapib tablet and one 10 mg ezetimibe capsule); • Obicetrapib monotherapy: Obicetrapib 10 mg (administered as one 10 mg obicetrapib tablet and 1 placebo capsule); or • Placebo (administered as 1 placebo tablet and 1 placebo capsule).
The exploratory efficacy endpoints include the following: • Percent change from Day 1 to Day 84 in non-HDL-C, VLDL-C, HDL-C, TG, ApoE, Lp(a), and HDL-ApoE for the obicetrapib 10 mg+ezetimibe 10 mg combination treatment group compared with the placebo group and for the obicetrapib 10 mg monotherapy treatment group compared with the placebo group; and • Proportion of participants at Day 84 that achieve LDL-C<2.6 mmol/L (<100 mg/dL), LDL-C<1.8 mmol/L (<70 mg/dL), and LDL-C<1.3 mmol/L (<50 mg/dL) for the obicetrapib 10 mg+ezetimibe 10 mg combination treatment group compared with the placebo group and for the obicetrapib 10 mg monotherapy treatment group compared with the placebo group.
Blood samples for the lipid profile must be obtained under fasting conditions (ie, after the participant has fasted for approximately 10 hours). For the purposes of this study, fasting will be defined as nothing by mouth except water and any essential medications. If a participant is not fasting, the Investigator should reschedule the visit as soon as possible. LDL-C level will be calculated using the Friedewald equation unless TG≥400 mg/dL or LDL-C≤50 mg/dL; in both cases, LDL-C level will be measured directly by preparative ultracentrifugation, also referred to as beta quantification. Additionally, LDL-C will be measured by preparative ultracentrifugation, also referred to as beta quantification, at baseline (Visit 2) and at the end of the 12-week Treatment Period (Visit 4) for all participants.
The Modified ITT (mITT) Population will include all participants in the ITT Population who receive at least 1 dose of any study drug and have a baseline value for the LDL-C assessment. […]

[2] = Kinetic solubility in FaSSIF (pH 6.5) at 37° C.; format: physicochemical; conditions: FaSSIF pH 6.5, 37° C., as obicetrapib free acid
Text: (§2) The amorphous form has a higher kinetic solubility and dissolution rate than the crystalline form (and by extension obicetrapib itself). Both crystalline and amorphous obicetrapib hemicalcium kinetic solubility determinations were made in biorelevant media at different pHs, namely at about 5.0 (FeSSIF conditions) and at pH of about 6.5 (FaSSIF) conditions as set forth in Example 11.28.
The concentrations in Table X are those of obicetrapib (i.e., the free acid).
(§3) The solids were magnetically stirred at 600 RPM in a shaker bath and samples were drawn with a 1.0 ml syringe at T=15 mins, 30 mins, 60 mins, 90 mins and 120 mins. The solubility was measured using HPLC method provided by the client. The compound was added to 4.0 ml glass vials at approximately 20.0 mg/ml. Samples were agitated with a vortex mixer for about 5 minutes to ensure the presence of undissolved excess powder. The sample collected at each time point was centrifuged at 1200 RPM, filtered with 0.45 μm Polytetrafluoroethylene (PTFE) filters and diluted with methanol before HPLC analysis. In order to minimize the effect of potential analyte adsorption on the filter, the initial 0.5 mL of supernatant passing through the filter was discarded prior to collecting sample for HPLC analysis.

[3] = Kinetic solubility in FeSSIF (pH 5.0) at 37° C.; format: physicochemical; conditions: FeSSIF pH 5.0, 37° C., as obicetrapib free acid
Text: as §2
The concentrations in Table W are those of obicetrapib (i.e., the free acid).
as §3

## CCOC(=O)N1c2ccc(C(F)(F)F)cc2[C@@H](N(Cc2cc(C(F)(F)F)cc(C(F)(F)F)c2)c2ncc(OCCCC(=O)O)cn2)C[C@H]1CC [Obicetrapib 10 mg]
[1]; (%)
  Any TEAEs by maximum severity: Mild, (%): (20.5) %
  Any TEAEs by maximum severity: Moderate, (%): (7.7) %
  Any TEAEs by maximum severity: Severe, (%): (10.3) %
  Any TEAEs leading to death, (%): (0.0) %
  Any serious TEAEs (TESAEs), (%): (5.1) %
  Any study drug-related TEAEs by maximum severity: Mild, (%): (10.3) %
  Any study drug-related TEAEs by maximum severity: Moderate, (%): (5.1) %
  Any study drug-related TEAEs by maximum severity: Severe, (%): (5.1) %
  Any study drug-related TEAEs leading to discontinuation of study drug, (%): (5.1) %
  Any study drug-related TEAEs, (%): (2.6) %
  Any study drug-related TESAEs, (%): (2.6) %
  Any treatment-emergent AEs (TEAEs), (%): (20.5) %
[1]; (%), first line with this label (r25)
  Any TEAEs leading to discontinuation of study drug, (%): (0.0) %
[1]; (%), last line of the table (r40)
  Any TEAEs leading to discontinuation of study drug, (%): (0.0) %
[1]; column e
  Any TEAEs by maximum severity: Mild, e: 20
  Any TEAEs leading to death, e: 0
  Any serious TEAEs (TESAEs), e: 2
  Any study drug-related TEAEs by maximum severity: Mild, e: 4
  Any study drug-related TEAEs leading to discontinuation of study drug, e: 5
  Any study drug-related TESAEs, e: 1
  Any treatment-emergent AEs (TEAEs), e: 20
[1]; column e, last line of the table (r40)
  Any TEAEs leading to discontinuation of study drug, e: 0
Lp(a); Day 84
  Lp(a) Day 84, Mean: 74.75 nmol/L
  Lp(a) Day 84, Median: 20.85 nmol/L
  Lp(a) Day 84 Maximum: 327.7 nmol/L
  Lp(a) Day 84 Minimum: 2.8 nmol/L
Lp(a)
  Lp(a) Change from Baseline to Day 84, Mean: -27.66 nmol/L
  Lp(a) Change from Baseline to Day 84, Median: -10.95 nmol/L
  Lp(a) Change from Baseline to Day 84 Maximum: 3.0 nmol/L
  Lp(a) Change from Baseline to Day 84 Minimum: -148.8 nmol/L
  Lp(a) Percent Change from Baseline to Day 84 (%) Maximum: 103.4%
  Lp(a) Percent Change from Baseline to Day 84 (%) Minimum: −84.6%
  Lp(a) Percent Change from Baseline to Day 84 (%), Mean: −24.44%
  Lp(a) Percent Change from Baseline to Day 84 (%), Median: −22.75%

## CCOC(=O)N1c2ccc(C(F)(F)F)cc2[C@@H](N(Cc2cc(C(F)(F)F)cc(C(F)(F)F)c2)c2ncc(OCCCC(=O)[O-])cn2)C[C@H]1CC.CCOC(=O)N1c2ccc(C(F)(F)F)cc2[C@@H](N(Cc2cc(C(F)(F)F)cc(C(F)(F)F)c2)c2ncc(OCCCC(=O)[O-])cn2)C[C@H]1CC.[Ca+2] [Amorphous obicetrapib hemicalcium Batch #2]
[2]; 15 mins
  Concentration in Solution: 90 µg/mL
[2]; 30 mins
  Concentration in Solution: 140 µg/mL
[2]; 60 mins
  Concentration in Solution: 229 µg/mL
[2]; 90 mins
  Concentration in Solution: 293 µg/mL
[2]; 120 mins
  Concentration in Solution: 387 µg/mL
[3]; 15 mins
  Concentration in Solution: 502 µg/mL
[3]; 30 mins
  Concentration in Solution: 618 µg/mL
[3]; 60 mins
  Concentration in Solution: 628 µg/mL
[3]; 90 mins
  Concentration in Solution: 658 µg/mL
[3]; 120 mins
  Concentration in Solution: 642 µg/mL

## CCOC(=O)N1c2ccc(C(F)(F)F)cc2[C@@H](N(Cc2cc(C(F)(F)F)cc(C(F)(F)F)c2)c2ncc(OCCCC(=O)[O-])cn2)C[C@H]1CC.CCOC(=O)N1c2ccc(C(F)(F)F)cc2[C@@H](N(Cc2cc(C(F)(F)F)cc(C(F)(F)F)c2)c2ncc(OCCCC(=O)[O-])cn2)C[C@H]1CC.[Ca+2] [Amorphous obicetrapib hemicalcium Batch #1]
[2]; 15 mins
  Concentration in Solution: 60 µg/mL
[2]; 30 mins
  Concentration in Solution: 99 µg/mL
[2]; 60 mins
  Concentration in Solution: 163 µg/mL
[2]; 90 mins
  Concentration in Solution: 201 µg/mL
[2]; 120 mins
  Concentration in Solution: 244 µg/mL
[3]; 15 mins
  Concentration in Solution: 520 µg/mL
[3]; 30 mins
  Concentration in Solution: 661 µg/mL
[3]; 60 mins
  Concentration in Solution: 675 µg/mL
[3]; 90 mins
  Concentration in Solution: 696 µg/mL
[3]; 120 mins
  Concentration in Solution: 675 µg/mL
